As a reminder, the NOAEL is the highest dose or exposure tested at which no adverse effect was seen.

35 molecules from EPA's ToxValDB 9.5 can be followed below.

For this data set, the system named is Rattus norvegicus. The settings on record: oral.
The mark [1] stands for this setting: short-term, duration: 28 days, gavage, M, Sprague-Dawley, Clinical Observation: Locomotor activity decrease, Respiratory rate decrease, Incomplete eyelid opening + Blood Chemistry: TG decrease + ….
Where [2] appears, read: chronic, duration: 17 weeks, gavage, F, Ash/CSE, Body Weight Changes: decrease.
Where [3] appears, read: chronic, duration: 17 weeks, gavage, M, Ash/CSE, Body Weight Changes: decrease.
Setting [4] is: subchronic, gavage, M, Sprague-Dawley, Clinical Observation: Salivation + Body Weight Changes: Body weight gain decrease + Food Consumption: decrease + Water Consumption: increase….
The mark [5] stands for this setting: subchronic, gavage, M, Sprague-Dawley, Clinical Observation: Salivation (transient) + Functional Observational Battery: Salivation (transient)Defecation increase(transient) + ….
Setting [6] is: subchronic, gavage, M, Sprague-Dawley, Body Weight Changes: decrease, Gain decrease + Food Consumption: decrease + Hematology: RBC decrease, Hgb decrease, Hct decrease, Ret ….

For the molecule `[Cu+2].[O-]n1ccccc1=S.[O-]n1ccccc1=S` [Copper Omadine], the NOEL (short-term, duration: 28 days, gavage, M/F, Deaths + Clinical Observation: Ataxic gait Dragging of hindlimbs Emaciation + Body Weight Changes: decrease + Food Consumption: decrease + …) was 2.5 mg/kg-day.

Take `CC=CC(=O)N(CC)c1ccccc1C` [Crotamiton]: the NOEL amounted to 60 mg/kg-day (short-term, duration: 28 days, gavage, F, Sprague-Dawley, Clinical Observation: Salivation + Body Weight Changes: Weight gain decrease, increase + Food Consumption: increase + Urinalysis: Occult …) and 12 mg/kg-day (short-term, duration: 28 days, gavage, M, Sprague-Dawley, Clinical Observation: Salivation + Body Weight Changes: Weight gain decrease, increase + Food Consumption: increase + Urinalysis: Occult …).

In the case of `CC(C)c1ccc(N)cc1` [Cumidine], the NOEL (subchronic, gavage, M, Sprague-Dawley, Clinical Observation: Anemia in eyes + Hematology: Met-Hgb increase, Hct decrease, Hgb decrease, RBC decrease, MCV increase, MCH increase, …) was determined as 6 mg/kg-day.

`O=C1CCCCC1C1=CCCCC1` (stereo not given) [Cyclohexanone, 2-(1-cyclohexen-1-yl)-]: the NOEL (subchronic, gavage, M, Sprague-Dawley, Clinical Observation: Salivation + Body Weight Changes: decrease + Blood Chemistry: gamma-GTP increase, TP increase, Alb increase, T-Cho …) was determined as 40 mg/kg-day.

For `COC(=O)CC(=O)OC` [Dimethyl malonate], the NOAEL (subchronic, gavage, M, Wistar, Histopathology: Liver: Hypertrophy, hepatocyte) was found to be 300 mg/kg-day.

Consider `CN(C)CCCCl.Cl` [Dimethylaminopropyl chloride hydrochloride], for which the NOEL (subchronic, drinking water, M/F, Fischer 344, Deaths + Body Weight Changes: decrease + Blood Chemistry: TP decrease Alb decrease Bile acid increase + Histopathology: Nose-Goblet cell, …) is under 6.25 mg/kg-day.

Regarding `CC(CO)OC(C)CO.CC(O)COCC(C)O` (stereo not given) [Dipropylene glycol], under setting [1], the NOAEL worked out at 1000 mg/kg-day and the NOEL was 200 mg/kg-day.

On to `CC(C)C[C@H]1C(=O)N2CCC[C@H]2[C@]2(O)O[C@](NC(=O)[C@@H]3C=C4c5cccc6[nH]cc(c56)C[C@H]4N(C)C3)(C(C)C)C(=O)N12` [Ergocryptine], for which the NOEL is, setting by setting: (subchronic, diet, F, Hsd/Ola/SD, Clinical Observation: Hyperkinesia, dirty hair Hunchback position Aggression + Body Weight Changes: decrease + Food Consumption: decrease + …) 0.36 mg/kg-day; (subchronic, diet, M/F, Hsd/Ola/SD, Clinical Observation: Hyperkinesia, dirty hair Hunchback position Aggression + Body Weight Changes: decrease + Food Consumption: decrease + …) 4 mg/kg-day.

For the molecule `CCOCCOCCOC` [Ethane, 1-ethoxy-2-(2-methoxyethoxy)-], where the note is “subchronic, duration: 42 days, gavage, M, CD(SD), Clinical Observation: Decrease in locomotor activity Salivation (transient) + Food Consumption: decrease + Urinalysis: K decrease, Cl …”, the NOAEL came to 62.5 mg/kg-day.

With `Nc1ccc2cc(S(=O)(=O)CCO)ccc2c1` [Ethanol, 2-[(6-amino-2-naphthalenyl)sulfonyl]-], for the setting “short-term, duration: 28 days, gavage, M/F, Body Weight Changes: Weight gain decrease + Urinalysis: pH decrease(slight) + Hematology: RBC decrease, RET increase, PT increase + Absolute…”, the NOEL amounted to 15 mg/kg-day.

As to `Nc1nc(N)nc(-c2cc(Cl)ccc2Cl)n1.O=C(O)/C=C\C(=O)O` [Irsogladine maleate], under “chronic, duration: 91 days, gavage, M/F, Sprague-Dawley, Deaths + Clinical Observation: Piloerection Salivation Locomotor activity decrease, Decrease in reactivity Soiled fur Brownish urine Soiled …”, the NOEL stood at 3 mg/kg-day.

Take `O=C(O)CCCC/C=C(\c1ccccc1)c1cccnc1` [Isbogrel]: under “subchronic, gavage, M/F, CD, Clinical Observation: Salivation + Hematology: RBC decrease, HCT decrease, HGB decrease + Blood Chemistry: Bil increase, GLUC decrease, TP …”, the NOAEL is under 100 mg/kg-day.

Under setting [2], `CC(C)CCO` [Isopentyl alcohol] registered an NOAEL of 1000 mg/kg-day and an NOEL of 1000 mg/kg-day. Under setting [3], this molecule came in with an NOAEL of 500 mg/kg-day and an NOEL of 500 mg/kg-day.

Take `CC1(C)CC(N)CC(C)(CN)C1` (stereo not given) [Isophorone diamine]: the NOAEL (subchronic, duration: 90 days, drinking water, M/F, Wistar, Body Weight Changes: Weight gain decrease + Food Consumption: decrease + Water Consumption: decrease + Absolute Organ Weight: Kidney …) was 60 mg/kg-day.

Regarding `CC(=O)N1CCN(c2ccc(OC[C@@H]3CO[C@@](Cn4ccnc4)(c4ccc(Cl)cc4Cl)O3)cc2)CC1` [Ketoconazole], the NOEL (short-term, duration: 28 days, gavage, M/F, Sprague-Dawley, Body Weight Changes: decrease + Blood Chemistry: ALT increase, Estrus cycle increase, T3 decrease, T4 decrease, TSH increase, Testosterone …) is under 6.25 mg/kg-day.

With `CC1(C)Oc2ccc(C#N)cc2[C@@H](N2CCCC2=O)[C@@H]1O` [Levcromakalim], the NOAEL (chronic, duration: 91 days, diet, M/F, CD, Body Weight Changes: increase.3 + Food Consumption: increase.3 + Water Consumption: increase + Urinalysis: Volume increase Osmolality …) is 0.03 mg/kg-day.

In the case of `CCCCCC1C(=O)CCC1CC(=O)OC` (stereo not given) [Methyl dihydrojasmonate], under setting [4], the NOAEL stood at 100 mg/kg-day and the NOEL came out at 100 mg/kg-day.

With `CC1CCCCC1` [Methylcyclohexane], under setting [5], the LOEL turned out to be 250 mg/kg-day and the NOEL came to 62.5 mg/kg-day.

In the case of `CC(C)CCCCCOC(=O)C[S][Sn]([CH3])([S]CC(=O)OCCCCCC(C)C)[S]CC(=O)OCCCCCC(C)C` [Methyltin tris(isooctyl mercaptoacetate)], the NOAEL (subchronic, duration: 90 days, diet, M, Wistar, Blood Chemistry: BUN increase + Relative Organ Weight: Thymus increase, Kidney increase + Histopathology: Kidney: Dilatation, tubule, cystic…) amounted to 48 mg/kg-day.

Consider `CCC(C)=NO[Si](C)(ON=C(C)CC)ON=C(C)CC` [Methyltri(2-butanoneoximyl)silane], for which the NOAEL (short-term, duration: 28 days, gavage, M, Wistar, Functional Observational Battery: Rearing decrease, Grip strength(fore and hind limb) decrease, Mean body temperature decrease + Body Weight…) was 10 mg/kg-day.

Consider `CC(CN1CCOCC1)OCCN1CCOCC1` (stereo not given) [Morpholine, 4-[2-[1-methyl-2-(4-morpholinyl)ethoxy]ethyl]-], for which the NOEL (short-term, duration: 28 days, gavage, M/F, Clinical Observation: Salivation Ptosis Reddish pinna Swelling of pinna + Body Weight Changes: Body weight gain decrease + Food Consumption…) was under 8 mg/kg-day.

As for `CCn1cc(C(=O)O)c(=O)c2ccc(C)nc21` [Nalidixic acid], the NOEL (subchronic, duration: 13 weeks, diet, M/F, Fischer 344, Deaths + Body Weight Changes: decrease + Food Consumption: decrease + Absolute Organ Weight: Liver increase + Relative Organ Weight: Liver …) is 96 mg/kg-day.

Consider `NC(=O)N/N=C/c1ccc([N+](=O)[O-])o1` [Nitrofurazone], for which the NOEL (subchronic, duration: 13 weeks, diet, M/F, Fischer 344, Body Weight Changes: decrease + Food Consumption: decrease + Absolute Organ Weight: Liver increase + Relative Organ Weight: Liver increase…) was under 14.4 mg/kg-day.

In the case of `CCCCCCCCC` [Nonane], where the note is “subchronic, duration: 90 days, gavage, F, Fischer 344, Absolute Organ Weight: Liver increase, Lung increase, Adrenal increase, Spleen decrease, Ovary decrease + Histopathology: Alimentary tract: …”, the NOAEL came to 100 mg/kg-day.

On to `ClCCCCCCCCCl` [Octane, 1,8-dichloro-], for which the NOEL (short-term, duration: 28 days, gavage, M/F, Sprague-Dawley, Deaths + Clinical Observation: Salivation + Functional Observational Battery: Grip strength (forelimb) decrease, Grip strength (hindlimb) …) was under 40 mg/kg-day.

On to `FC(F)(F)C1(F)C(F)(F)C(F)(F)C(F)(F)C(F)(F)C1(F)C(F)(F)F` (stereo not given) [Perfluoro-1,2-dimethylcyclohexane], for which, under “subchronic, duration: 42 days, gavage, M, CD(SD), Hematology: HGB decrease, HCT decrease + Histopathology: Liver-Hypertrophy, hepatocyte, central”, the NOEL stood at 300 mg/kg-day.

Regarding `O=C(O)C(F)(F)C(F)(F)C(F)(F)C(F)(F)C(F)(F)C(F)(F)C(F)(F)C(F)(F)C(F)(F)C(F)(F)C(F)(F)C(F)(F)C(F)(F)C(F)(F)C(F)(F)C(F)(F)C(F)(F)F` [Perfluorooctadecanoic acid], under setting [6], the LOEL worked out at 200 mg/kg-day and the NOEL was 40 mg/kg-day.

On to `CC(CN1c2ccccc2Sc2ccccc21)N(C)C.Cl` (stereo not given) [Promethazine hydrochloride], for which, under “subchronic, duration: 13 weeks, gavage, M/F, Fischer 344, Deaths + Clinical Observation: Hunched posture Labored respiration Abnormal respiratory sounds + Body Weight Changes: decrease + Absolute …”, the NOEL is 3.7 mg/kg-day.

`CC(=O)/C=C/C=C(\C)CCC=C(C)C` [Pseudoionone]: the no observed adverse effect level (NOAEL) (short-term, duration: 28 days, gavage, M/F, Wistar Han, Clinical Observation: Salivation + Body Weight Changes: Weight gain decrease + Hematology: RBC increase, HCT increase, PLT increase, APTT …) is 50 mg/kg-day.

Turning to `Br.CN1[C@@H]2CC(OC(=O)[C@H](CO)c3ccccc3)C[C@H]1[C@@H]1O[C@@H]12.O.O.O` (stereo not given in full) [Scopolamine hydrobromide trihydrate], the NOEL (chronic, duration: 14 weeks, gavage, M/F, Fischer 344, Deaths + Clinical Observation: Pupillary dilation Reddening of eyes Hypoactivity + Body Weight Changes: decrease + Hematology: Hgb increase…) is under 15 mg/kg-day.

On to `CCCCCCC[CH2][Sn]([Cl])([Cl])[Cl]` [Stannane, trichlorooctyl-], for which the NOAEL (subchronic, duration: 13 weeks, diet, M/F, Wistar, Blood Chemistry: ALP increase + Absolute Organ Weight: Thymus decrease + Relative Organ Weight: Thymus decrease + Histopathology: Thymus- …) was determined as 9.6 mg/kg-day and the NOAEL (subchronic, duration: 13 weeks, diet, M/F, Wistar, Body Weight Changes: Mean body weight decrease + Food Consumption: decrease + Urinalysis: SG decrease + Hematology: HGB decrease, HCT …) was under 2.88 mg/kg-day.

For the molecule `CC(C)(c1cc(Br)c(OCCO)c(Br)c1)c1cc(Br)c(OCCO)c(Br)c1` [Tetrabromobisphenol A bis(2-hydroxyethyl) ether], the NOEL (subchronic, gavage, M, Sprague-Dawley, Clinical Observation: Soft stool R + Hematology: Plt increase + Blood Chemistry: BUN increase + Necropsy: Cecum-Distention) is 40 mg/kg-day.

On to `CCCC[N+](CCCC)(CCCC)CCCC.[Br-]` [Tetrabutylammonium bromide], for which the NOEL (subchronic, gavage, M/F, Sprague-Dawley, Deaths + Clinical Observation: Reddish urine + Body Weight Changes: Gain decrease + Food Consumption: increase + Urinalysis: Light brown …) was found to be 60 mg/kg-day.

As for `O=C1OC(=O)c2c(Cl)c(Cl)c(Cl)c(Cl)c21` [Tetrachlorophthalic anhydride], the NOEL (subchronic, gavage, M/F, Fischer 344, Deaths + Body Weight Changes: decrease + Blood Chemistry: gamma-GTP increase, Glu decrease + Absolute Organ Weight: Spleen decrease, Right …) is under 94 mg/kg-day.

For the molecule `c1ccc2c(c1)CCCC2` [Tetralin], the NOAEL (short-term, duration: 28 days, gavage, M/F, Wistar, Clinical Observation: Squatting position Closed eyes Reduced activity LethargyTonic convulsion Absence of auditory startle reflex + Body …) worked out at 15 mg/kg-day.
